According to patent US9056140B2, “Pharmaceutical compound” (priority 2007, dated 2015):

Key:
[1] = tested on: MCF-7 cells (ER-positive breast cancer cell line); assay: LDH release assay, cell survival of MCF-7 monolayers; type: cell-based, human; conditions: FIG. 2; saporin 500 nM, raloxifene 1000 nM, alone or as admixture
Procedure: (§1) Cell survival (%) for each cell line is calculated according to a standard lactate dehydrogenase (LDH) release assay, where […] (0% survival) corresponds to cells treated with 50 μg/ml of Mitomycin C and […] (100%) survival corresponds to cells treated only with complete medium.
The MCF-7 cell line (ECACC, catalogue no. 86012803) was isolated from a breast adenocarcinoma in a person and it expresses the estrogen receptor. The cell line was maintained in Minimum Essential Medium (Sigma) supplemented with 2 mM L-Gln (Sigma), 1% Non Essential amino acids (Sigma), 100 IU Penicillin, 100 μg/ml Streptomycin (Sigma) and, as complete medium, 10% Foetal Calf Serum (FCS) (Sigma).
(§2) Cultures of MCF-7, HCC-1143 and OVCAR-3 were harvested at approximately 80% confluency by trypsinisation and after washing once in serum free medium, used to seed Flat bottom 96-well plates (Nunc) with 5×10^3 cells per well in 200 μl of complete medium. […]
(§3) The detection reagent from the CytoTox 96® Non-Radioactive Cytotoxicity Assay kit (Promega) was prepared as per manufacturer's instruction and 50 μl/well of detection reagent was added to all wells. After 30 minutes incubation in the dark at room temperature, the reaction was stopped by adding 50 μl/well of Stop solution to all wells and the absorbance of each well at 490 nm was established.

[2] = tested on: HCC-1143 cells (ER-negative breast cancer cell line); assay: LDH release assay, cell survival of HCC-1143 monolayers; type: cell-based, human; conditions: FIG. 2; raloxifene 1000 nM
Procedure: as §1
The cell line was maintained in RPMI-1640 (Sigma) supplemented with 2 mM L-Gln (Sigma), 10 mM HEPES (Sigma), 1 mM Na-Pyr (Sigma), 100 IU Penicillin, 100 μg/ml Streptomycin (Sigma) and, as complete medium, 10% FCS (Sigma).
Cultures of MCF-7, HCC-1143 and OVCAR-3 were harvested at approximately 80% confluency by trypsinisation and after washing once in serum free medium, used to seed Flat bottom 96-well plates (Nunc) with 5×10^3 cells per well in 200 μl of complete medium.
Following 18 hours incubation at 37° C., the test compounds were removed and 200 μl/well of complete medium added to each well. […]
as §3

[3] = tested on: OVCAR-3 cells (ovarian ER positive cell line); assay: LDH release assay, cell survival of OVCAR-3 monolayers; type: cell-based, human; conditions: FIG. 2; raloxifene 1000 nM
Procedure: as §1
Finally, the NIH:OVCAR-3 cells (ATTC, catalogue no. HTB-161) was isolated from an ovary adenocarcinoma in a person and it expresses the estrogen receptor. The cell line was maintained in RPMI-1640 (Sigma) supplemented with 2 mM L-Gln (Sigma), 10 mM HEPES (Sigma), 1 mM Na-Pyr (Sigma), 0.01 mg/ml Bovine Insulin (Sigma), 100 IU Penicillin, 100 μg/ml Streptomycin (Sigma) and, as complete medium, 20% FCS (Sigma).
as §2, §3

MCF-7 tumors = assay: In vivo anti-tumor activity, MCF-7 tumors in nude female mice; conditions: i.v. retro-orbital, days 36 and 43
Procedure: Animals received intravenous treatment via the retro-orbital route on days 36 and 43 post challenge.
Thirty (30) nude female mice (nu/nu), 6-8 weeks old, were challenged subcutaneously with 2×10^7 MCF-7 cells delivered in combination with Matrigel (Becton Dickinson) (200 μl total volume). Weight loss and tumor growth (calculated by taking two perpendicular measurements and applying the formula [Π*((min measurement)/2)^2*(maximum measurement)]) were monitored daily until the end of the study.
Statistical differences were calculated using non-parametric Mann-Whitney assays and considered significant if p<0.05.
Control animals received either PBS or the same doses of raloxine via the same route.
Due to the natural susceptibility of MCF-7 cells to estrogen production, daily tumor volume variation in the nude mice model used follows sinusoidal pattern with a period of approximately 4/5 days (see FIG. 3). The duration of this period correlates with the duration of the oestrus cycle in mice (i.e. 4/5 days). As a result, and in order to facilitate experimental analysis, FIG. 3 represents tumor volume variations for each experimental group both as daily changes and as moving averages (i.e. a trend line) for overlapping 5 day periods (i.e. overlap is 4 days per point).

[4] = cited from earlier work
[5] = patients taking raloxifene daily

| Compound | lethal effect on MCF-7 cells [1] | lethal effect on HCC-1143 cells [2] | lethal effect on OVCAR-3 cells [3] | tumor growth compared to PBS control group (MCF-7 tumors; peak blood concentration 0.1 nM conjugate or 0.1 ng/ml raloxifene) | tumor growth compared to PBS control group (MCF-7 tumors; peak blood concentration 0.2 nM conjugate or 0.2 ng/ml raloxifene) | tumor volume / tumor growth (MCF-7 tumors; peak blood concentration 0.4 nM conjugate or 0.4 ng/ml raloxifene, vs PBS) | reducing the incidence of estrogen receptor positive breast cancer ([4]; clinical trial, vs tamoxifen) | fewer blood clots than women taking tamoxifen daily [4, 5] [%] | fewer uterine cancers than women taking tamoxifen daily [4, 5] [%] |
| --- | --- | --- | --- | --- | --- | --- | --- | --- | --- |
| saporin | no significant (p>0.05) lethal effect | – | – | – | – | – | – | – | – |
| O=C(c1ccc(OCCN2CCCCC2)cc1)c1c(-c2ccc(O)cc2)sc2cc(O)ccc12 [Raloxifene] | selective significant (p<0.05) effect | not against | not against | did not result in any changes | did not result in any changes | maintenance or slight reduction of tumor size over time | as effective as tamoxifen | 29 | 36 |
